According to the supplement of paper PMC10307832:

compound: CC1(COc2ccc3c(c2)ncn3-c2ccc3cccc(N4CCC(N)CC4)c3n2)COC1 [Crenolanib] + C[C@]1(O)C[C@@H](c2nc(-c3ccc4ccc(-c5ccccc5)nc4c3)c3c(N)nccn32)C1 [Linsitinib] (partner 1 µM); assay: relative viability (nuclei count vs DMSO), 5 days (fraction); higher = more cells survive; settings: first compound 0.01 µM
How it was run: (§1)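 Relative viability divides the nuclei count in treated wells by that in vehicle wells. Lung cancer cell lines were seeded in 1536-well plates, dosed by pin tool the next day, and fixed and stained after 5 days in one step with final 0.05% Triton X-100, 1% formaldehyde and 1 ug/ml Hoechst. Dosing was a single drug or a fixed anchor-drug dose plus five library-drug doses (not always all listed) in √10 steps, and values are medians of duplicate plates imaged at 4×.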

Cell Line | relative viability
LXF-289 | 0.974
BEN | 1.03
HCC-15 | 0.832
HCC-827 | 0.958
LOU-NH91 | 1.02
NCI-H2023 | 0.669
A-427 | 1.1
NCI-H460 | 0.85
NCI-H727 | 0.285
NCI-H1755 | 1.01
NCI-H520 | 0.89
NCI-H2405 | 1.15
SW 1573 | 0.873
201T | 1.05
NCI-H1975 | 1.05
HOP-62 | 0.94
NCI-H2347 | 0.972
NCI-H1355 | 0.857
NCI-H650 | 1.06
CAL-12T | 0.967
NCI-H1666 | 0.871
H3255 | 0.923
NCI-H23 | 0.563
NCI-H1915 | 1.13
NCI-H1437 | 1.05
NCI-H322M | 0.944
NCI-H1563 | 1.12
NCI-H1792 | 0.603

same assay, conditions: first compound 0.03162 µM

Cell Line | relative viability
LXF-289 | 1.02
BEN | 0.895
HCC-15 | 0.919
HCC-827 | 0.94
LOU-NH91 | 0.908
NCI-H2023 | 0.678
A-427 | 1.06
NCI-H460 | 0.817
NCI-H727 | 0.245
NCI-H1755 | 0.981
NCI-H520 | 1.07
NCI-H2405 | 0.923
SW 1573 | 0.841
201T | 1.04
NCI-H1975 | 0.968
HOP-62 | 0.764
NCI-H2347 | 1.02
NCI-H1355 | 0.848
NCI-H650 | 0.969
CAL-12T | 0.7
NCI-H1666 | 0.909
H3255 | 0.872
NCI-H23 | 0.671
NCI-H1915 | 1.13
NCI-H1437 | 1.03
NCI-H322M | 0.923
NCI-H1563 | 1.3
NCI-H1792 | 0.648

same assay, conditions: first compound 0.1 µM

Cell Line | relative viability
LXF-289 | 0.955
BEN | 0.83
HCC-15 | 0.889
HCC-827 | 0.946
LOU-NH91 | 0.822
NCI-H2023 | 0.626
A-427 | 1.08
NCI-H460 | 0.745
NCI-H727 | 0.284
NCI-H1755 | 0.994
NCI-H520 | 0.853
NCI-H2405 | 0.661
SW 1573 | 0.704
201T | 1.01
NCI-H1975 | 0.933
HOP-62 | 0.906
NCI-H2347 | 0.736
NCI-H1355 | 0.773
NCI-H650 | 0.952
CAL-12T | 0.768
NCI-H1666 | 0.765
H3255 | 0.92
NCI-H23 | 0.548
NCI-H1915 | 1.07
NCI-H1437 | 0.958
NCI-H322M | 0.884
NCI-H1563 | 1.18
NCI-H1792 | 0.554

same assay, conditions: first compound 0.3162 µM

Cell Line | relative viability
LXF-289 | 1.02
BEN | 0.848
HCC-15 | 0.926
HCC-827 | 0.953
LOU-NH91 | 0.887
NCI-H2023 | 0.801
A-427 | 1.15
NCI-H460 | 1.02
NCI-H727 | 0.327
NCI-H1755 | 1.09
NCI-H520 | 1.08
NCI-H2405 | 0.794
SW 1573 | 0.96
201T | 1.04
NCI-H1975 | 0.993
HOP-62 | 1.04
NCI-H2347 | 1.04
NCI-H1355 | 0.947
NCI-H650 | 0.923
CAL-12T | 0.869
NCI-H1666 | 0.881
H3255 | 0.938
NCI-H23 | 0.759
NCI-H1915 | 1.09
NCI-H1437 | 1.12
NCI-H322M | 0.935
NCI-H1563 | 1.23
NCI-H1792 | 0.532

same assay, conditions: first compound 1 µM

Cell Line | relative viability
LXF-289 | 0.972
BEN | 0.911
HCC-15 | 0.861
HCC-827 | 0.872
LOU-NH91 | 0.936
NCI-H2023 | 0.621
A-427 | 1.15
NCI-H460 | 0.816
NCI-H727 | 0.389
NCI-H1755 | 0.959
NCI-H520 | 0.868
NCI-H2405 | 0.859
SW 1573 | 0.81
201T | 1.11
NCI-H1975 | 0.864
HOP-62 | 1.01
NCI-H2347 | 0.873
NCI-H1355 | 0.809
NCI-H650 | 0.715
CAL-12T | 0.846
NCI-H1666 | 0.839
H3255 | 1.04
NCI-H23 | 0.648
NCI-H1915 | 1.06
NCI-H1437 | 1.02
NCI-H322M | 0.975
NCI-H1563 | 1.06
NCI-H1792 | 0.518

compound: CC1(COc2ccc3c(c2)ncn3-c2ccc3cccc(N4CCC(N)CC4)c3n2)COC1 [Crenolanib] + CS(=O)(=O)CCNCc1ccc(-c2ccc3ncnc(Nc4ccc(OCc5cccc(F)c5)c(Cl)c4)c3c2)o1 [Lapatinib] (partner 2 µM); assay: as above; settings: first compound 0.01 µM
How it was run: as §1

Cell Line | relative viability
LXF-289 | 0.887
BEN | 0.808
HCC-15 | 0.829
HCC-827 | 0.163
LOU-NH91 | 0.798
NCI-H2023 | 1.04
A-427 | 0.996
NCI-H460 | 0.997
NCI-H727 | 0.936
NCI-H1755 | 1.02
NCI-H520 | 0.664
NCI-H2405 | 1.02
SW 1573 | 1.01
201T | 1
NCI-H1975 | 0.844
HOP-62 | 0.869
NCI-H2347 | 0.981
NCI-H1355 | 1.02
NCI-H650 | 0.83
CAL-12T | 0.73
NCI-H1666 | 0.772
H3255 | 0.271
NCI-H23 | 1.04
NCI-H1915 | 0.943
NCI-H1437 | 0.751
NCI-H322M | 0.613
NCI-H1563 | 0.818
NCI-H1792 | 0.977

same assay, conditions: first compound 0.03162 µM

Cell Line | relative viability
LXF-289 | 0.918
BEN | 0.552
HCC-15 | 0.895
HCC-827 | 0.188
LOU-NH91 | 0.742
NCI-H2023 | 0.898
A-427 | 0.998
NCI-H460 | 1
NCI-H727 | 0.662
NCI-H1755 | 1.08
NCI-H520 | 0.848
NCI-H2405 | 1.13
SW 1573 | 1.06
201T | 1.02
NCI-H1975 | 0.968
HOP-62 | 1
NCI-H2347 | 0.903
NCI-H1355 | 1.04
NCI-H650 | 1.15
CAL-12T | 0.618
NCI-H1666 | 0.579
H3255 | 0.218
NCI-H23 | 1.16
NCI-H1915 | 0.927
NCI-H1437 | 0.762
NCI-H322M | 0.64
NCI-H1563 | 0.97
NCI-H1792 | 0.851

same assay, conditions: first compound 0.1 µM

Cell Line | relative viability
LXF-289 | 0.889
BEN | 0.746
HCC-15 | 0.807
HCC-827 | 0.16
LOU-NH91 | 0.774
NCI-H2023 | 0.844
A-427 | 1.04
NCI-H460 | 1.04
NCI-H727 | 0.752
NCI-H1755 | 0.987
NCI-H520 | 0.88
NCI-H2405 | 0.85
SW 1573 | 1.3
201T | 1.03
NCI-H1975 | 0.774
HOP-62 | 0.991
NCI-H2347 | 0.663
NCI-H1355 | 0.999
NCI-H650 | 0.884
CAL-12T | 0.661
NCI-H1666 | 0.799
H3255 | 0.241
NCI-H23 | 0.977
NCI-H1915 | 1.01
NCI-H1437 | 0.808
NCI-H322M | 0.543
NCI-H1563 | 0.937
NCI-H1792 | 0.835

same assay, conditions: first compound 0.3162 µM

Cell Line | relative viability
LXF-289 | 0.908
BEN | 0.685
HCC-15 | 0.83
HCC-827 | 0.217
LOU-NH91 | 0.737
NCI-H2023 | 0.889
A-427 | 1.06
NCI-H460 | 1.46
NCI-H727 | 0.856
NCI-H1755 | 1.12
NCI-H520 | 0.85
NCI-H2405 | 0.998
SW 1573 | 1.18
201T | 0.965
NCI-H1975 | 0.891
HOP-62 | 1.08
NCI-H2347 | 1.05
NCI-H1355 | 1.15
NCI-H650 | 0.841
CAL-12T | 0.703
NCI-H1666 | 0.872
H3255 | 0.233
NCI-H23 | 1.22
NCI-H1915 | 0.956
NCI-H1437 | 0.873
NCI-H322M | 0.567
NCI-H1563 | 0.998
NCI-H1792 | 1.09

same assay, conditions: first compound 1 µM

Cell Line | relative viability
LXF-289 | 0.838
BEN | 0.68
HCC-15 | 0.793
HCC-827 | 0.191
LOU-NH91 | 0.772
NCI-H2023 | 0.47
A-427 | 1.06
NCI-H460 | 1.01
NCI-H727 | 0.686
NCI-H1755 | 0.967
NCI-H520 | 0.778
NCI-H2405 | 0.948
SW 1573 | 1.1
